Results on 38 molecules are retold here after ChEMBL document CHEMBL1125335 (J Med Chem, 1992).

A short description of assay [1]: Inhibition of c-AMP phosphodiesterase activity in guinea pig tracheal muscle.
In assay [2] the target is T1, Adenosine receptor A1 (Cavia porcellus) (UniProt P47745).
T1 sequence (whole entry): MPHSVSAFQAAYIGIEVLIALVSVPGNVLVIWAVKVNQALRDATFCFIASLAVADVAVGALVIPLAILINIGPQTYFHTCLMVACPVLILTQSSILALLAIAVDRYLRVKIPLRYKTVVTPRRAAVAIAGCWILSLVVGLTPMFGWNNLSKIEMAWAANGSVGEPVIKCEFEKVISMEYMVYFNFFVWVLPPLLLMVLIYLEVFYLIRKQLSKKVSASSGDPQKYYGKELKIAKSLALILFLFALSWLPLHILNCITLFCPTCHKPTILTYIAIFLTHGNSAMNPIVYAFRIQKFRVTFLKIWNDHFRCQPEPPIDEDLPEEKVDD
Put plainly: Positive chronotropic effect on isolated guinea pig right atrium (heart stimulation). It is filed as functional, tissue-based. The conditions noted are these: Cardiac atrium.

The next assay has as its target T2, Adenosine receptor A1 (Cavia porcellus, UniProt P47745).
T2 sequence (P47745 whole entry): T1 sequence (whole entry)
Put plainly: Affinity against adenosine A1 receptor in the brain membranes by the displacement of [3H]CPX. The format is cell membranes, Membrane.

The next assay concerns the target Adenosine receptor A2a (Cavia porcellus, UniProt P46616). As to the kind of experiment: Affinity against adenosine A2 receptor in the brain membranes measured by the displacement of [3H]-CPX. It is filed as cell membranes, Membrane. Background: In a radioligand displacement assay an active substance lowers the binding of a labelled ligand.
A short description of assay [3]: Ratio of stimulatory activity in right atrium to relaxant activity in tracheal muscle. The format is functional, Cardiac atrium.
Assay [4] deals with Cavia porcellus. As to the kind of experiment: In vivo positive chronotropic effect on isolated guinea pig right atrium. The format is functional, Cardiac atrium.
Assay [5] has as its system Cavia porcellus. Put plainly: In vivo reduction of acetylcholine-induced bronchospasm in guinea pigs by intraduodenal dose. The format is functional.
The next assay addresses Adenosine A2 receptor (Homo sapiens, UniProt P29275+P29274). Put plainly: Affinity against adenosine A2 receptor in brain membranes by displacement of [3H]CPX. It is filed as cell membranes, Cavia porcellus, Membrane.
The nature of assay [6]: Inhibitory activity against c-AMP phosphodiesterase in guinea pig tracheal muscle.

pKi: −log10 of the molar value.

Chain of Adenosine receptor A2a (P46616 whole entry): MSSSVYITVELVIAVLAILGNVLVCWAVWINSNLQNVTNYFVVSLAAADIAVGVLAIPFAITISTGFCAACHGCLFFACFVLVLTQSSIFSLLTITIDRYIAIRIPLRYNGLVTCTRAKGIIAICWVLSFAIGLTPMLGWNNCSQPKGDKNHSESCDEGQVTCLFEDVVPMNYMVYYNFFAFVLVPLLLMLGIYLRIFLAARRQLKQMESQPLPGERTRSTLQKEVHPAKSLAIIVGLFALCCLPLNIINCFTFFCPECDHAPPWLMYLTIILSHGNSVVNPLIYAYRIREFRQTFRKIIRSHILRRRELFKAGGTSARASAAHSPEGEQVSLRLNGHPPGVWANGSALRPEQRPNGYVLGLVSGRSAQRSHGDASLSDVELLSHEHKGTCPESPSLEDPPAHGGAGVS

Usually Ki stands for a dissociation constant, usually derived from enzyme kinetics or from competition with a known ligand. A word on the pKi: it is the negative decadic logarithm of the Ki, by convention in mol/L. A higher pKi goes with a small Ki. As for `CCCn1c(=O)n(C)c(=O)c2[nH]cnc21`, the Ki in assay [1] was found to be 10.6 µM. The molecule also displayed an EC15 in [2] of 3.3 µM. Also, the negative-log Ki (pKi) on Adenosine receptor A1 is 5.72; at Adenosine receptor A2a it was 5.10. Besides, the Broncho selectivity in assay [3] was 2.1.

As usually defined, the ED50 is the dose that gives a 50% effect, or the effect in half of the subjects. The low end stands for greater potency, the high end for weaker potency. Turning to `Cn1c(=O)c2nc[nH]c2n(C)c1=O.O` [THEOPHYLLINE], the ED15 in the assay on Cavia porcellus [4] came out at 20.2 mg kg-1 i.d. Besides, the 50% effect level in the assay on Cavia porcellus [5] (ED50) was put at a dose of 23.4 mg/kg.

Take `CCCn1c(=O)n(C)c(=O)c2c1ncn2CC`: in assay [2], the EC15 was > 100 µM. The molecule further showed a pKi on Adenosine receptor A1 of 4.85.

Consider `CCCCn1c(=O)[nH]c2nc[nH]c2c1=O`, for which the negative-log Ki (pKi) is 5.52 at Adenosine receptor A1 and 4.81 on Adenosine receptor A2a.

For the molecule `CCCCn1c(=O)c2[nH]cnc2n(CCC)c1=O`, the pKi at Adenosine receptor A1 was 7.70; at Adenosine receptor A2a, 5.39.

With `O=c1[nH]c(=O)c2[nH]cnc2[nH]1` [XANTHINE], the pKi at Adenosine receptor A1 is < 3.70.

With `CCCn1c(=O)[nH]c(=O)c2c1ncn2C`, the EC15 in assay [2] is > 100 µM. The molecule further had a negative-log Ki (pKi) at Adenosine receptor A1 of 4.04.

Regarding `CCn1c(=O)[nH]c(=O)c2[nH]cnc21`, the EC15 in assay [2] is > 100 µM. Moreover, the pKi on Adenosine receptor A1 was 3.93.

`CCCCn1cnc2c1c(=O)[nH]c(=O)n2CCC` came in with a Ki in [1] of 36.5 µM. Further, in [2], the EC15 is > 100 µM. On Adenosine receptor A1, the negative logarithm of the Ki (pKi) is 4.92. For the same molecule, the Broncho selectivity in assay [3] is 7.1.

As for `Cn1c(=O)[nH]c(=O)c2[nH]cnc21` [3-METHYLXANTHINE], in [2], the EC15 was > 100 µM. This molecule also yielded an inhibition constant (Ki) at Adenosine A2 receptor of 133 µM.

In the case of `CCCCn1c(=O)[nH]c(=O)c2[nH]cnc21`, the Ki in assay [1] was found to be 32 µM. Moreover, the EC15 in assay [2] stood at 17 µM. For the same molecule, at Adenosine receptor A1, the pKi was 4.67. In [3], the Broncho selectivity is given as 2.1.

As to `CCCn1c(=O)c2[nH]cnc2n(C)c1=O`, the pKi on Adenosine receptor A1 was 5.47.

For the molecule `CCCCn1c(=O)c2nc[nH]c2n(CCC)c1=O`, the EC15 in assay [2] was determined as 29 µM. Besides, the ED15 in the assay with Cavia porcellus [4] is on record as >100 mg kg-1 i.d. In the assay on Cavia porcellus [5], this molecule had an ED50 of 2.87 mg/kg.

In turn, `Cn1c(=O)[nH]c2[nH]cnc2c1=O` [1-METHYLXANTHINE] showed a Ki in [1] of 163 µM. For the same molecule, the EC15 in assay [2] was > 100 µM. For the same molecule, the Broncho selectivity in [3] was determined as 1.3.

`CCCn1c(=O)c2nc[nH]c2n(CCC)c1=O`: in assay [2], the EC15 turned out to be 20 µM. Further, the pKi on Adenosine receptor A1 is 6.70.

In the case of `CCCn1c(=O)[nH]c2[nH]cnc2c1=O`, the EC15 in assay [2] was > 100 µM.

As for `CCn1c(=O)c2nc[nH]c2n(C)c1=O`, the EC15 in assay [2] turned out to be 34 µM. At Adenosine receptor A1, the negative logarithm of the Ki (pKi) is 5.01.

In the case of `Cn1c(=O)[nH]c2nc[nH]c2c1=O` [1-METHYLXANTHINE], the negative-log Ki (pKi) on Adenosine receptor A1 is 4.94; on Adenosine receptor A2a it was 4.17.

For `CCCCn1c(=O)c2nc[nH]c2n(C)c1=O`, the EC15 in assay [2] came to 90.5 µM. Besides, the pKi at Adenosine receptor A1 is 5.37.

Consider `CCCCn1cnc2c1c(=O)n(C)c(=O)n2CCC`, for which the Ki in assay [1] was > 200 µM. The EC15 in [2] is > 100 µM. Moreover, the pKi at Adenosine receptor A1 was 5.14; on Adenosine receptor A2a, 4.82. Besides, the Broncho selectivity in assay [3] is 32.3.

Molecule `CCCn1c(=O)n(C)c(=O)c2c1ncn2C` displayed an EC15 in [2] of 45.4 µM. Further, the pKi is 4.84 at Adenosine receptor A1 and 4.70 at Adenosine receptor A2a.

Regarding `CCCCn1c(=O)c2c(ncn2C)n(CCC)c1=O`, the inhibitory constant (Ki) in assay [6] worked out at 30.1 µM. For the same molecule, in assay [2], the EC15 was > 100 µM. In addition, the ED15 in the assay with Cavia porcellus [4] is >100 mg kg-1 i.d. Besides, at Adenosine receptor A1, the pKi was 5.22. Also, the 50% effect level in the assay on Cavia porcellus [5] (ED50) was put at a dose of 2.34 mg/kg. In addition, the Broncho selectivity in [3] is 71.4.

In assay [2], `CCn1c(=O)n(C)c(=O)c2[nH]cnc21` returned an EC15 of 28.5 µM. The pKi at Adenosine receptor A1 was 5.12; on Adenosine receptor A2a, 4.60.

Turning to `CCCn1c(=O)[nH]c2nc[nH]c2c1=O`, the pKi is 5.48 on Adenosine receptor A1 and 4.63 on Adenosine receptor A2a.

In the case of `CCCn1c(=O)c2nc[nH]c2n(C)c1=O`, the inhibition constant (Ki) in assay [1] is 26 µM. In assay [2], the EC15 amounted to 36.2 µM. In addition, the Broncho selectivity in assay [3] turned out to be 3.7.

In assay [2], `Cn1c(=O)c2[nH]cnc2n(C)c1=O` returned an EC15 of 62 µM.

`CCCn1c(=O)n(CC)c(=O)c2c1ncn2C`: the Ki in assay [6] amounted to 19.4 µM. The molecule also displayed an EC15 in assay [2] of 30 µM. The molecule also gave a pKi on Adenosine receptor A1 of 4.93. Besides, in assay [3], the Broncho selectivity is recorded as 4.

As to `CCCn1cnc2c1c(=O)[nH]c(=O)n2CCC`, the Ki in [1] stood at 35 µM. In assay [2], the EC15 was > 100 µM. The negative logarithm of the Ki (pKi) at Adenosine receptor A1 was 4.74. For the same molecule, the Broncho selectivity in assay [3] is reported as >6.3.

Take `CCCn1cnc2c1c(=O)n(C)c(=O)n2CCC`: the Ki in assay [1] was determined as 30.8 µM. In [2], this molecule had an EC15 of 45.2 µM. Besides, the negative logarithm of the Ki (pKi) at Adenosine receptor A1 was 5.03; at Adenosine receptor A2a, 4.36. Moreover, the Broncho selectivity in assay [3] is 9.

As for `CCCn1c(=O)n(CC)c(=O)c2[nH]cnc21`, in assay [1], the Ki was found to be 24.1 µM. Further, in assay [2], the EC15 amounted to 6.1 µM. Further, the negative logarithm of the Ki (pKi) is 5.85 at Adenosine receptor A1 and 5.41 on Adenosine receptor A2a. In addition, the Broncho selectivity in assay [3] was 4.7.

Regarding `CCCn1c(=O)[nH]c(=O)c2c1ncn2CC`, the inhibitory constant (Ki) in assay [6] is 13.2 µM. Further, the EC15 in [2] was > 100 µM. In addition, the pKi at Adenosine receptor A1 was 4.39. Moreover, in assay [3], the Broncho selectivity was 12.

`CCCn1c(=O)[nH]c(=O)c2nc[nH]c21` [ENPROFYLLINE] showed an EC15 in assay [2] of 18.3 µM. Further, the ED15 in the assay with Cavia porcellus [4] came out at 95.1 mg kg-1 i.d. This molecule showed a median effective dose (ED50) in the assay on Cavia porcellus [5] of 25.7 mg/kg.

For the molecule `CCCCn1c(=O)[nH]c2[nH]cnc2c1=O`, the EC15 in [2] is > 100 µM.

`CCn1c(=O)[nH]c2nc[nH]c2c1=O`: the pKi at Adenosine receptor A1 was 5.01; on Adenosine receptor A2a it was 4.47.

Turning to `CCn1c(=O)[nH]c2[nH]cnc2c1=O`, the EC15 in assay [2] is > 100 µM.

`CCCCn1c(=O)n(C)c(=O)c2[nH]cnc21` displayed an inhibition constant (Ki) in assay [6] of 10.2 µM. Besides, in assay [2], the EC15 turned out to be 2.2 µM. Moreover, the figures for the negative logarithm of the Ki (pKi) on Adenosine receptor A1 and at Adenosine receptor A2a were 5.72 and 5.32, respectively. In assay [3], the Broncho selectivity was determined as 1.7.

Take `O=c1[nH]c(=O)c2nc[nH]c2[nH]1`: the EC15 in assay [2] was > 100 µM.

As for `CCCn1c(=O)c2c(ncn2C)n(CCC)c1=O`, in assay [2], the EC15 came to 45.8 µM. Further, on Adenosine receptor A1, the pKi is 5.11.
